Results reported in PubChem BioAssay (NCI).
Several values for one entry are separate records, joined by “and”; a condition that tells them apart may be missing. Identical values can stand only once.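 Results reflect a 48-hour exposure of cells in 96-well plates to compound at five concentrations. Abbreviation: GI50, concentration required for 50% inhibition of growth. Definition used: TGI = concentration required for complete inhibition of growth.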

What was measured:
Assay in all cases: NCI-60 cell line screen, 48 h
NCI-H226 lung = system: NCI-H226 lung
SNB-75 CNS = system: SNB-75 CNS
DU-145 prostate = system: DU-145 prostate
HOP-92 NSCLC = system: HOP-92 NSCLC
TK-10 renal = system: TK-10 renal
HS 578T breast = system: HS 578T breast
CAKI-1 renal = system: CAKI-1 renal
EKVX NSCLC = system: EKVX NSCLC

SMILES | GI50 (NCI-H226 lung) | TGI (NCI-H226 lung) | GI50 (SNB-75 CNS) | TGI (SNB-75 CNS) | GI50 (DU-145 prostate) | TGI (DU-145 prostate) | GI50 (HOP-92 NSCLC) | TGI (HOP-92 NSCLC) | GI50 (TK-10 renal) | TGI (TK-10 renal) | GI50 (HS 578T breast) | TGI (HS 578T breast) | GI50 (CAKI-1 renal) | TGI (CAKI-1 renal) | GI50 (EKVX NSCLC) | TGI (EKVX NSCLC)
CCCCCCCCCCCCC(O)c1ccc(C#CCCCCCCCCCO)o1 (centres undefined) | 21.2 µM | 37.9 µM | 34.1 µM | 70.1 µM | 18.8 µM | 33 µM | 19.8 µM | 37.9 µM | 15.7 µM | 30.5 µM | 23.8 µM | 47.3 µM | 18.6 µM | 33.1 µM | 22.2 µM | 43.1 µM
Oc1[nH]c2ccccc2c1N=Nc1nc(-c2ccc(Br)cc2)cs1 |  |  |  | 46.6 µM |  | 68 µM |  | 31.7 µM |  | 61.2 µM |  | 65 µM |  | 39.9 µM |  | 30.4 µM
CCOP(=O)(OCC)C(F)(F)c1ccc(CC(NC(=O)OC(C)(C)C)C(=O)O)cc1 (centres undefined) |  | > 10 µM |  | > 10 µM |  | > 10 µM |  | > 10 µM |  | > 10 µM |  | > 10 µM |  | > 10 µM |  | > 10 µM
NC(=O)C(=Cn1c(=S)[nH]c2ccc([N+](=O)[O-])cc21)C(N)=O |  | > 100 µM |  | > 100 µM |  | > 100 µM |  | > 100 µM |  | > 100 µM |  |  |  | > 100 µM |  | > 100 µM
O=C1NC(=NC(CO)Cc2ccccc2)S/C1=C\c1ccc2ncccc2c1 (centres undefined) | > 25 µM and 5.55 µM | > 25 µM | 10.8 µM and 1.77 µM | > 25 µM | 18.8 µM and 2.62 µM | > 25 µM | 24.2 µM and 6.61 µM | > 25 µM and 19.5 µM | > 23.7 µM and 3.55 µM | > 25 µM | 11.3 µM and 7.01 µM | > 25 µM | 9.35 µM and 3.64 µM | > 25 µM |  | 
CC1(COc2ccc3c(c2)ncn3-c2ccc3cccc(N4CCC(N)CC4)c3n2)COC1 | 3.18 µM and 2.54 µM | 9.32 µM and > 10 µM | 0.734 µM | 5.65 µM | 2.19 µM and 1.5 µM | 13 µM and > 10 µM | 10.3 µM and 3.27 µM | 25.7 µM and > 10 µM | 1.97 µM and 2.56 µM | 6.73 µM and > 10 µM | 2.08 µM and 0.385 µM | 15.3 µM and 4.77 µM | 4.75 µM and 3.55 µM | 19.6 µM and > 10 µM | 3.02 µM and 3.28 µM | 13.2 µM and > 10 µM
CC(C)c1cc2c(cc1S(=O)(=O)O)[C@@]1(C)CCC[C@@](C)(C(=O)O)C1CC2 (some centres undefined) |  | > 100 µM |  | > 100 µM |  | > 100 µM |  | > 100 µM |  | > 100 µM |  | > 100 µM |  | > 100 µM |  | > 100 µM
CC(=O)CC(OC(C)=O)C1=CCC2C(CC1C)OC(=O)C2C (centres undefined) |  | > 100 µM |  | > 100 µM |  | > 100 µM |  | > 100 µM |  | > 100 µM |  | > 100 µM |  | > 100 µM |  | > 100 µM
CC(C)=CCC(O)C1=CC(=O)c2c(O)ccc(O)c2C1=O (centres undefined) |  | 2.3 µM |  | 11.1 µM |  | 2.5 µM |  |  |  | 3.04 µM |  | 6.2 µM |  | 0.986 µM |  | 3.02 µM
N#CC(C#N)=C/C=C(\Sc1nc2ccccc2s1)c1ccc(Cl)cc1 | 7.73 µM | 22.8 µM | 1.31 µM | 8.82 µM | 3.98 µM | 17.1 µM | 13.8 µM | 29.3 µM | 6.18 µM | 15 µM | 6.68 µM | 27.9 µM | 1.93 µM | 9.82 µM | 18.4 µM | 40 µM
C/C(=C\CBr)CCC(Br)C(C)(C)Br (centres undefined) |  | > 100 µM |  | > 100 µM |  | > 100 µM |  | > 100 µM |  | > 100 µM |  | > 100 µM |  |  |  | > 100 µM
COCCOc1ccc(-c2nc3ccc(-c4nc5ccc(N6CCN(C)CC6)cc5[nH]4)cc3[nH]2)cc1 |  |  | 0.486 µM | 3.14 µM | 1.13 µM | 9.59 µM | 2.16 µM | 9.71 µM | 4.74 µM | 40.2 µM | 2.94 µM | 15.9 µM | 2.25 µM | > 100 µM | 6.56 µM | 46.3 µM
O=[N+]([O-])c1ccc(Cl)cc1N/N=C/c1ccnc2ccccc12 |  | > 100 µM |  | > 100 µM |  | > 100 µM |  |  |  | > 100 µM |  | > 100 µM |  | > 100 µM |  | > 100 µM
COc1cccc(C(=O)NC(c2ccc(C)cc2)c2cc(Cl)c3cccnc3c2O)c1 (centres undefined) | 0.568 µM | 2.57 µM | 0.326 µM | 11.9 µM | 1.14 µM | 14.3 µM | 0.474 µM | 9.33 µM | 0.393 µM | 4.8 µM | 0.362 µM | 30.5 µM | 0.465 µM | 15.8 µM |  | 
Cc1ccc(-n2c3nc(=O)[nH]c(=O)c-3cc3cc([N+](=O)[O-])ccc32)cc1 | 24.6 µM | 86 µM | 16.6 µM | 59.4 µM | 22.9 µM | 55.1 µM |  |  | 29.3 µM | 64.5 µM |  |  | 10.4 µM | 39.2 µM | 33.1 µM | 67 µM
O=C1CCC2(c3ccc(Cl)cc3)Nc3ccncc3N12 (centres undefined) |  | > 10 µM |  | > 10 µM |  | > 10 µM |  | > 10 µM |  | > 10 µM |  | > 10 µM |  |  |  | > 10 µM
O=C(Oc1ccc(Cl)cc1)c1ccccc1Nc1ccnc(C(F)(F)F)c1 | 2.94 µM | 16.8 µM |  |  | 18.7 µM | 39.8 µM | 20.8 µM | > 100 µM | 17.9 µM | 48.9 µM | 30.3 µM | 93.9 µM | 2.32 µM | 4.67 µM | 25.2 µM | 64 µM
COc1cc(-c2ccc3cc(OC)c(OC)c(OC)c3c2)cc(OC)c1OC | > 100 µM | > 100 µM |  |  | > 100 µM | > 100 µM | 2.17 µM | 14.1 µM | 27.9 µM | 84.3 µM | 15.4 µM | > 100 µM | > 100 µM | > 100 µM |  | 
COc1ccc(-c2cn[nH]c2-c2cc(OC)c(OC)c(OC)c2)cc1 | 0.111 µM | 20.6 µM | 0.022 µM | 33.6 µM | 0.0392 µM | 2.67 µM | 0.0407 µM | 9.79 µM |  |  | 0.0408 µM | 22.5 µM | 0.0187 µM | 18.2 µM |  | 
CCCCCCCCCCCCCCCC[N+](C)(C)Cc1ccccc1 |  |  | 1.34 µM | 2.76 µM | 1.7 µM and 1.62 µM | 3.22 µM and 3.12 µM |  |  |  |  | 1.82 µM | 4.89 µM | 9.52 µM and 3.74 µM | 35.6 µM and 21.7 µM |  | 
